Results: ChEMBL document CHEMBL5096217, “Design, synthesis and biological evaluation of novel 4-aminopiperidine derivatives as SMO/ERK dual inhibitors” (Bioorg Med Chem, 2022)

Key:
[1] = target: T1, Mitogen-activated protein kinase 1 (Homo sapiens, UniProt P28482); test: Inhibition of ERK2 (unknown origin) using kinase substrate 8 at 100 nM incubated for 40 mins in presence of ATP by mobility shift assay
[2] = target: T1, Mitogen-activated protein kinase 1; test: Inhibition of ERK2 (unknown origin) using kinase substrate 8 incubated for 40 mins in presence of ATP by mobility shift assay
[3] = target: Protein smoothened (Mus musculus) (UniProt P56726); test: Inhibition of SMO in mouse 3T3/HH FlashII-7 cells at 100 nM incubated for 36 hrs in presence of SHH by Gli-luciferase reporter assay; type: cell-based
Protein smoothened = Protein smoothened (Mus musculus, UniProt P56726); test: Inhibition of SMO in mouse 3T3/HH FlashII-7 cells incubated for 36 hrs in presence of SHH by Gli-luciferase reporter assay; type: cell-based
[4] = Antiproliferative activity against human RBE cells overexpressing Hh/ERK pathway assessed as inhibition of cell growth incubated for 96 hrs by CCK8 assay; type: functional, cell-based
[5] = Antiproliferative activity against human RBE cells overexpressing Hh/ERK pathway assessed as inhibition of cell growth incubated for 96 hrs by CCK8 assay relative to SCH772984; type: functional

Sequence of Protein smoothened (P56726 whole entry): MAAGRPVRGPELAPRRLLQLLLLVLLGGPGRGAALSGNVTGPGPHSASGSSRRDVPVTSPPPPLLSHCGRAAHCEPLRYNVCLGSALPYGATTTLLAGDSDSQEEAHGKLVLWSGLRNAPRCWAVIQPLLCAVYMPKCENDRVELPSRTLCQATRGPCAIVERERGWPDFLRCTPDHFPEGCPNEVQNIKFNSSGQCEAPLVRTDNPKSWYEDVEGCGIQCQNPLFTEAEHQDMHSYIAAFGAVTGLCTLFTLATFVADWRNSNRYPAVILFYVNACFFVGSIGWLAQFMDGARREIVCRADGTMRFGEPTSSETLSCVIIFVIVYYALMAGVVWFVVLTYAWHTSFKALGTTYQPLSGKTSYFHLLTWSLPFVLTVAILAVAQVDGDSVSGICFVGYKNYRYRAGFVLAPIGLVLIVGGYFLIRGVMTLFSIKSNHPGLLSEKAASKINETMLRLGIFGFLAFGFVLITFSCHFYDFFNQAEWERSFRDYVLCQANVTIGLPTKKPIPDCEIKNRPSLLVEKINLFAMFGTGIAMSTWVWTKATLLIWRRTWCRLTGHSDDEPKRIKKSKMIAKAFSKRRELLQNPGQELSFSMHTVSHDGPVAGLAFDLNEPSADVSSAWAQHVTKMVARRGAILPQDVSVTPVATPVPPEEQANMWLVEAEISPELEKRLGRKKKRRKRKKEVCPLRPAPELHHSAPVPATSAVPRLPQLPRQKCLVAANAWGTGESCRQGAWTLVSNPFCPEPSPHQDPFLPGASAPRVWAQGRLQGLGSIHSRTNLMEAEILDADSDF
Sequence of Protein smoothened (Mus musculus) (P56726 whole entry): as above
T1 sequence (P28482 whole entry): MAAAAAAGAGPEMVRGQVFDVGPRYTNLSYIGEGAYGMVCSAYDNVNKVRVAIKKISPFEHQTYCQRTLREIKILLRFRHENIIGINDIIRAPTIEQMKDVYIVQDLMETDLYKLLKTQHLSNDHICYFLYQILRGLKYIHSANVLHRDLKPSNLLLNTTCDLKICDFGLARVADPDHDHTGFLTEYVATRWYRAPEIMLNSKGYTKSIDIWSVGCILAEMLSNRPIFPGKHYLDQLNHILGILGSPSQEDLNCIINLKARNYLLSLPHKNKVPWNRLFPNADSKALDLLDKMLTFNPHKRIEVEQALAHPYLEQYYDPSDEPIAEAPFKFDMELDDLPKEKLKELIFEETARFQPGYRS

inhibition [1] [%]	IC50 [2] [nM]	inhibition [3] [%]	IC50 (Protein smoothened) [nM]	SMILES	IC50 [4] [nM]	fold change (FC) [5]
5.6				Cc1c(-c2ccnn2C)nnc(N2CCC(NC(=O)Nc3ccc(Oc4nc(NC(C)C)ncc4Cl)cc3)CC2)c1C		
	3320	68.2		Cc1c(-c2ccnn2C)nnc(N2CCC(NC(=O)c3ccc(NC(=O)c4ccnc(NC5CCOCC5)n4)cc3C(F)(F)F)CC2)c1C		
46.4		68.5		Cn1nccc1-c1ccc(N2CCC(NC(=O)Nc3ccc(Oc4nc(NC5CCOCC5)ncc4Cl)cc3)CC2)nn1		
1.1				Cc1c(-c2ccnn2C)nnc(N2CCC(NC(=O)Nc3ccc(Oc4nc(Nc5ccnn5C)ncc4Cl)cc3)CC2)c1C		
84.2			155	Cc1c(-c2ccnn2C)nnc(N2CCC(NC(=O)Nc3ccc(Sc4nc(NC5CCOCC5)ncc4C(F)(F)F)cc3)CC2)c1C	1450	0.89
91.2			17.6	Cc1c(-c2ccnn2C)nnc(N2CCC(NC(=O)Nc3ccc(Sc4nc(NC5CCOCC5)ncc4Cl)cc3)CC2)c1C	2170	1.33
80.9		89.9		Cc1c(-c2ccnn2C)nnc(N2CCC(NC(=O)Nc3ccc(Oc4nc(NC5CCOCC5)ncc4Cl)cc3)CC2)c1C	12300	7.59
	164		> 1000	Cn1cc(-c2ccc(N3CCC(NC(=O)Nc4ccc(Oc5nc(NC6CCOCC6)ncc5Cl)cc4)CC3)nn2)cn1		
	1320	90.4		Cc1c(-c2ccnn2C)nnc(N2CCC(NC(=O)Nc3ccc(Oc4ccnc(NC5CCOCC5)n4)cc3)CC2)c1C		
60.7			150	Cc1cnc(NC2CCOCC2)nc1Oc1ccc(NC(=O)NC2CCN(c3nnc(-c4ccnn4C)c(C)c3C)CC2)cc1		
36.9			63.9	Cc1c(-c2ccnn2C)nnc(N2CCC(NC(=O)Nc3ccc(Nc4nc(NC5CCOCC5)ncc4Cl)cc3)CC2)c1C		
			1.18	CN(C(=O)c1ccc(F)cc1C(F)(F)F)C1CCN(c2nnc(-c3ccnn3C)c3ccccc23)CC1 [TALADEGIB]	> 50000	
46			17.8	Cc1c(-c2ccnn2C)nnc(N2CCC(NC(=O)Nc3ccc(Oc4nc(Nc5cnn(C)c5)ncc4Cl)cc3)CC2)c1C		
				O=C(Nc1ccc2[nH]nc(-c3ccncc3)c2c1)[C@@H]1CCN(CC(=O)N2CCN(c3ccc(-c4ncccn4)cc3)CC2)C1	1630	
	41		409	Cc1c(-c2cnn(C)c2)nnc(N2CCC(NC(=O)Nc3ccc(Oc4nc(NC5CCOCC5)ncc4Cl)cc3)CC2)c1C		
6.6				Cc1c(-c2ccnn2C)nnc(N2CCC(NC(=O)Nc3ccc(Oc4nc(Nc5ccn(C)n5)ncc4Cl)cc3)CC2)c1C		
85			190	Cc1c(-c2ccnn2C)nnc(N2CCC(NC(=O)Nc3ccc(Oc4nc(NC5CCOCC5)ncc4C(F)(F)F)cc3)CC2)c1C		
